According to PMC12640828 (Frontiers in Pharmacology, 2025):

Key:
[1] = test system: Rat cardiac H9C2 cells; test: MTT-cell viability assay; assay type: cell-based; settings: 1 μM, 3 μM and 10 µM, 4 days, MTT colorimetric
Description: The rat cardiac H9C2 cells were maintained in Dulbecco’s Modified Eagle Medium (DMEM) cell culture medium (supplemented with 10% fetal bovine serum, 4.5 gm/liter D-glucose, and 1x penicillin-streptomycin antibiotic solution) and grown at 37 °C in a humidified incubator with 5% CO2. Cells in a 96-well plate were treated with 1 μM, 3 μM, and 10 µM concentrations of NMEG-CGRP and CMEG-CGRP and further grown for 4 days. The cell viability assay was performed using colorimetric MTT-cell proliferation kit I (Roche-Millipore Sigma, St Louis, MO) following the vendor’s protocol.

[2] = biological target: T1, insulin-degrading enzyme (IDE) (Homo sapiens, UniProt P14735); test: In vitro peptide digestion with IDE followed by LC-MS; assay type: in vitro ADME; settings: 100 µM peptide, 0.1 µg IDE, 50 mM Tris-Cl pH 7.5 + 1M NaCl, 25 µL, 37 °C, sampled at 5, 30, 60 min
T1 construct: purchased R&D Systems, Minneapolis, MN
T1 sequence (P14735 1-1019): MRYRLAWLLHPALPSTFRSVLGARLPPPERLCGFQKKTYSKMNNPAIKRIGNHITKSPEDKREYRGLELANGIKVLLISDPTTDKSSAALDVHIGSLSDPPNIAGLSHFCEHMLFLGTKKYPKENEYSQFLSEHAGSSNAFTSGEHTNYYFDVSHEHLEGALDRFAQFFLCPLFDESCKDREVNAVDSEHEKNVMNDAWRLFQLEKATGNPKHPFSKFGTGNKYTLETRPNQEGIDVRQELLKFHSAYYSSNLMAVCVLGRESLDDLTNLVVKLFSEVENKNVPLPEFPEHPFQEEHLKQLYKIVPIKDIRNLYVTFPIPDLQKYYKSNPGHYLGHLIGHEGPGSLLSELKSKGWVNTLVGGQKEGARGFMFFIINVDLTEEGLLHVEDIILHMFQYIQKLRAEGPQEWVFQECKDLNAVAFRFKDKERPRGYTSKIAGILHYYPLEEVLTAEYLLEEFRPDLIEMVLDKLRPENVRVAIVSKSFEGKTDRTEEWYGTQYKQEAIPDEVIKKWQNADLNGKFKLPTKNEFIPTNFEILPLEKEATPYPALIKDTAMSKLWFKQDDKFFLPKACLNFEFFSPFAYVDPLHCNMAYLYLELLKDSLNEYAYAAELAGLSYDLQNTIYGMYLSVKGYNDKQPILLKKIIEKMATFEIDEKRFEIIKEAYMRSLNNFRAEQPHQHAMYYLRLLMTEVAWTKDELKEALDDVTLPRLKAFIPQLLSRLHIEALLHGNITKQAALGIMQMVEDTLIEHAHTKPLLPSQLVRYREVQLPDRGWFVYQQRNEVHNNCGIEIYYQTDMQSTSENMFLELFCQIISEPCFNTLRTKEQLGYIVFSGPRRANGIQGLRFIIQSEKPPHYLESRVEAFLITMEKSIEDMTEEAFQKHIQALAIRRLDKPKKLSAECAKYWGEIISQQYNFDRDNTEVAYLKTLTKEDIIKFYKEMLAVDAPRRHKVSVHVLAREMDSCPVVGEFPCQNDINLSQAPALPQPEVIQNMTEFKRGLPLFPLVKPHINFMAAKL
Description: An equal volume (25 µL) of 10% formic acid (Sigma) was added. After heating the reaction at 95 °C for 5 min, desalting of the peptides was carried out using Pierce C18 tips (87782; ThermoFisher Scientific). For peptide-desalting, 30 µL of 2.5% trifluoroacetic acid (TFA) was added in a total 50 µL of the peptide-digestion reaction. Pierce C18 tips were wetted in 50% acetonitrile:water soln, equilibrated with 0.1% TFA, and peptides were passed through the C18 tips. After washing the C18 tips with 0.1% TFA in 5% acetonitrile:water soln, peptides were eluted in 10 µL of 0.1% formic acid in 75% acetonitrile: water soln and stored at −80 °C. Desalted peptide samples were submitted for Liquid Chromatography Mass Spectrometry (LC-MS) analysis to the University of South Carolina-Mass Spectrometry Center.

[3] = test system: TAC pressure-overload induced HF in mice; test: TAC pressure-overload heart failure in mice: echocardiography and heart weight; assay type: in vivo, male C57BL/6 mice; settings: 3.6 mg/kg/mouse s.c. on alternate days for 28 days
Description: Eight-week-old male C57BL/6 mice, purchased from Charles River Laboratories (Wilmington, MA), were housed in the institutional animal facility on a 12 h light/12 h dark cycle with free access to food and water throughout. Animal protocols were approved by the University of South Carolina-Institutional Animal Care and Use Committee (IACUC) following the NIH guidelines.
A transverse aortic constriction (TAC) procedure was followed to induce pressure-overload HF in mice ([Li et al., 2013]; [Kumar et al., 2019b]; [Kumar et al., 2020]). Briefly, mice were anesthetized under 1%–2% isoflurane and the chests of these mice were opened through the suprasternal notch. A 7–0 polypropylene suture was passed under the aortic arch between the left common carotid and innominate arteries and tied around the aorta and a 27-G needle. After tying a knot, the needle was removed, and the chest was closed using a 6–0 suture. Mice were kept on the 37 °C heat pad until they recovered and buprenorphine (0.1 mg/kg/mouse) was given subcutaneously (s.c.) as post-operative care. An identical procedure except tying a knot around the aortic arch was performed in the Sham groups of mice. Two days post-TAC, mice were divided into four groups (6–7 mice/gr): i- Sham, ii- Sham+NMEG-CGRP, iii- TAC, and iv- TAC+NMEG-CGRP. A stock solution 1 mg/mL of NMEG-CGRP was prepared in sterile 0.9% NaCl soln and NMEG-CGRP at 3.6 mg/kg/mouse dose was injected s.c. in the Sham+NMEG-CGRP and TAC+NMEG-CGRP groups of mice on alternate days for a total of 28 days. […]
The short axis 2D echocardiography was performed before TAC procedure (day 0) and then weekly after start of NMEG-CGRP administration in all groups of mice under 1%–2% isoflurane anesthesia using Vevo 3100 High-Resolution Imaging System (VisualSonics Inc., Toronto, Canada) and cardiac parameters were calculated using VisualSonics Measurement Software ([Li et al., 2013]; [Kumar et al., 2020]).

[4] = Solubility in water; assay type: physicochemical

| Compound | Viability of cardiac cells (MTT optical density vs control) [1] | Time to complete digestion of full-length peptide by IDE [2] | Abnormalities / adverse effect in mice during NMEG-CGRP delivery ([3]; Sham- and TAC-mice) | EF, Sham vs. Sham+NMEG-CGRP ([3]; sham mice, day 30) | Fractional shortening (FS), Sham vs. Sham+NMEG-CGRP ([3]; sham mice, day 30) | Solubility in water [4] |
| --- | --- | --- | --- | --- | --- | --- |
| COCCNCC(=O)N(CCOC)CC(=O)N[C@@H](C)C(=O)N[C@H]1CSSC[C@@H](C(=O)N[C@H](C(=O)N[C@H](C(=O)N[C@@H](Cc2c[nH]cn2)C(=O)N[C@@H](CCCNC(=N)N)C(=O)N[C@@H](CC(C)C)C(=O)N[C@@H](C)C(=O)NCC(=O)N[C@@H](CC(C)C)C(=O)N[C@@H](CC(C)C)C(=O)N[C@@H](CO)C(=O)N[C@@H](CCCNC(=N)N)C(=O)N[C@@H](CO)C(=O)NCC(=O)NCC(=O)N[C@H](C(=O)N[C@H](C(=O)N[C@@H](CCCCN)C(=O)N[C@@H](CC(N)=O)C(=O)N[C@@H](CC(N)=O)C(=O)N[C@@H](Cc2ccccc2)C(=O)N[C@H](C(=O)N2CCC[C@H]2C(=O)N[C@H](C(=O)N[C@@H](CC(N)=O)C(=O)N[C@H](C(=O)NCC(=O)N[C@@H](CO)C(=O)N[C@@H](CCCCN)C(=O)N[C@@H](C)C(=O)N[C@@H](Cc2ccccc2)C(N)=O)C(C)C)[C@@H](C)O)C(C)C)C(C)C)C(C)C)[C@@H](C)O)C(C)C)NC(=O)[C@H]([C@@H](C)O)NC(=O)[C@H](C)NC(=O)[C@H]([C@@H](C)O)NC(=O)[C@H](CC(=O)O)NC1=O [NMEG-CGRP] | did not inhibit the growth of H9C2 cells | > 60 min | did not observe any abnormalities | non-significant | non-significant | soluble in water |
| CC(C)C[C@H](NC(=O)CNC(=O)[C@H](C)NC(=O)[C@H](CC(C)C)NC(=O)[C@H](CCCNC(=N)N)NC(=O)[C@H](Cc1cnc[nH]1)NC(=O)[C@@H](NC(=O)[C@@H](NC(=O)[C@@H]1CSSC[C@H](NC(=O)[C@H](C)N)C(=O)N[C@@H](CC(=O)O)C(=O)N[C@@H]([C@@H](C)O)C(=O)N[C@@H](C)C(=O)N[C@@H]([C@@H](C)O)C(=O)N1)C(C)C)[C@@H](C)O)C(=O)N[C@@H](CC(C)C)C(=O)N[C@@H](CO)C(=O)N[C@@H](CCCNC(=N)N)C(=O)N[C@@H](CO)C(=O)NCC(=O)NCC(=O)N[C@H](C(=O)N[C@H](C(=O)N[C@@H](CCCCN)C(=O)N[C@@H](CC(N)=O)C(=O)N[C@@H](CC(N)=O)C(=O)N[C@@H](Cc1ccccc1)C(=O)N[C@H](C(=O)N1CCC[C@H]1C(=O)N[C@H](C(=O)N[C@@H](CC(N)=O)C(=O)N[C@H](C(=O)NCC(=O)N[C@@H](CO)C(=O)N[C@@H](CCCCN)C(=O)N[C@@H](C)C(=O)N[C@@H](Cc1ccccc1)C(N)=O)C(C)C)[C@@H](C)O)C(C)C)C(C)C)C(C)C [human α-CGRP, reference compound] | – | 5 to 30 min | – | – | – | – |
